Results on eight molecules are retold here after PubChem BioAssay (NCI).

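Grown in 96-well plates, cells were treated for 48 hours with each compound at five concentrations. Insufficient inhibition: endpoint recorded as highest concentration tested. GI50 = concentration required for 50% inhibition of growth. TGI denotes the concentration required for complete inhibition of growth.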 A value given as a limit tells only on which side of the number the result lay.

Some test systems named below: OVCAR-8 ovarian; EKVX NSCLC; HCC-2998 colon; OVCAR-3 ovarian; LOX IMVI melanoma; HOP-62 NSCLC; K-562 leukemia; RPMI-8226 leukemia; SK-MEL-5 melanoma; NCI-H226 lung.
Holding throughout (experiment): DTP human tumour cell line panel, 48 h

What is called TGI is the concentration at which net growth stops. The low end stands for more potent growth arrest, the high end for less potent growth arrest. Turning to `O=C(Nc1c(-c2nc3ccccc3[nH]2)sc(=S)n1-c1ccccc1)c1ccccc1`, the total growth inhibition concentration (TGI) in the assay on OVCAR-8 ovarian, in the assay with EKVX NSCLC, with HCC-2998 colon, in the assay on OVCAR-3 ovarian, in the assay on LOX IMVI melanoma and with HOP-62 NSCLC was more than 100 µM throughout. The TGI in the assay with K-562 leukemia was more than 100 µM; in the assay on RPMI-8226 leukemia it was more than 100 µM; in the assay with SK-MEL-5 melanoma, more than 100 µM; in the assay with NCI-H226 lung, 58.1 µM.

As a reminder, the GI50 is the concentration at which growth is held to half of that of the control. As to `CS(=O)(=O)CCNCc1ccc(-c2ccc3ncnc(Nc4ccc(OCc5cccc(C(F)(F)F)c5)cc4)c3c2)o1`, the GI50 was 6.91 µM in the assay on OVCAR-8 ovarian; 6.03 µM with EKVX NSCLC; 4.46 µM in the assay with HCC-2998 colon; 5.15 µM in the assay on OVCAR-3 ovarian; 4.53 µM in the assay on LOX IMVI melanoma; 6.53 µM in the assay on HOP-62 NSCLC. Besides, the GI50 is 3.18 µM with K-562 leukemia, 5.7 µM in the assay on RPMI-8226 leukemia, 6.05 µM with SK-MEL-5 melanoma and more than 16.3 µM with NCI-H226 lung. Further, the TGI was more than 21.9 µM in the assay on OVCAR-8 ovarian; more than 23.3 µM with EKVX NSCLC; 8.26 µM in the assay on HCC-2998 colon; 11.2 µM with OVCAR-3 ovarian; 9.32 µM with LOX IMVI melanoma; 16.6 µM with HOP-62 NSCLC. Moreover, the TGI with K-562 leukemia was 15 µM; with RPMI-8226 leukemia, 16.5 µM; in the assay on SK-MEL-5 melanoma it was more than 13.5 µM; with NCI-H226 lung, more than 25 µM.

Turning to `CCOC(=O)CC1(O)C=CC(=O)C=C1`, the GI50 in the assay on OVCAR-8 ovarian is 0.425 µg/mL; in the assay with EKVX NSCLC it was 3.24 µg/mL; in the assay on HCC-2998 colon, 2.56 µg/mL; with OVCAR-3 ovarian it was 0.738 µg/mL; in the assay with LOX IMVI melanoma it was 0.498 µg/mL; with HOP-62 NSCLC, 2.82 µg/mL. The GI50 in the assay with K-562 leukemia is 1.37 µg/mL; in the assay with RPMI-8226 leukemia, 1.24 µg/mL; with SK-MEL-5 melanoma, 1.96 µg/mL; with NCI-H226 lung, 4.79 µg/mL. Moreover, the TGI turned out to be 1.13 µg/mL in the assay on OVCAR-8 ovarian; 6.16 µg/mL in the assay with EKVX NSCLC; 4.68 µg/mL in the assay with HCC-2998 colon; 2.16 µg/mL with OVCAR-3 ovarian; 1.68 µg/mL in the assay with LOX IMVI melanoma; 5.29 µg/mL in the assay on HOP-62 NSCLC. Also, the TGI came to 10.8 µg/mL in the assay with K-562 leukemia, 28.4 µg/mL with RPMI-8226 leukemia, 3.86 µg/mL in the assay on SK-MEL-5 melanoma and 13 µg/mL in the assay on NCI-H226 lung.

For `C=C1CC(CCCl)(c2ccccc2)OC1=O` (stereo not given), the TGI was more than 100 µM with OVCAR-8 ovarian; more than 63.1 µM in the assay on EKVX NSCLC; more than 100 µM in the assay on HCC-2998 colon; 71.8 µM in the assay on OVCAR-3 ovarian; more than 62.2 µM with LOX IMVI melanoma; more than 100 µM with HOP-62 NSCLC. In addition, the TGI was more than 96.7 µM with K-562 leukemia, 71.5 µM with RPMI-8226 leukemia, more than 100 µM in the assay on SK-MEL-5 melanoma and more than 100 µM with NCI-H226 lung.

On to `CCCCCCCCCCCCCCCc1cc(O)ccc1N`, for which the GI50 with OVCAR-8 ovarian was 43.5 µM; with EKVX NSCLC it was more than 50.6 µM; in the assay with HCC-2998 colon, more than 100 µM; with OVCAR-3 ovarian it was 5.1 µM; in the assay with LOX IMVI melanoma it was 1.39 µM; in the assay with HOP-62 NSCLC, more than 100 µM. The GI50 in the assay with K-562 leukemia is 10.7 µM; with RPMI-8226 leukemia, 0.18 µM; in the assay with SK-MEL-5 melanoma, more than 100 µM; with NCI-H226 lung, 8.38 µM. In addition, the TGI in the assay on OVCAR-8 ovarian was more than 100 µM; in the assay on EKVX NSCLC it was more than 100 µM; in the assay on HCC-2998 colon it was more than 100 µM; in the assay with OVCAR-3 ovarian, more than 27.9 µM; in the assay with LOX IMVI melanoma, 9.41 µM; in the assay on HOP-62 NSCLC it was more than 100 µM. The TGI was more than 38 µM in the assay with K-562 leukemia, 18.8 µM in the assay with RPMI-8226 leukemia, more than 100 µM in the assay on SK-MEL-5 melanoma and more than 49.2 µM with NCI-H226 lung.

On to `CCC[CH2][Sn]([CH2]CCC)([O]C(=O)c1cccc(F)c1)[O]C(=O)c1cccc(F)c1`, for which the GI50 in the assay with OVCAR-8 ovarian was 1.22 µM; with EKVX NSCLC it was 1.3 µM; in the assay with HCC-2998 colon, 1.47 µM; in the assay on OVCAR-3 ovarian, 0.956 µM; in the assay on LOX IMVI melanoma, 0.605 µM; in the assay with HOP-62 NSCLC, 1.91 µM. The GI50 with K-562 leukemia is 0.298 µM; with RPMI-8226 leukemia, 0.329 µM; with SK-MEL-5 melanoma, 1.39 µM; with NCI-H226 lung, 1.16 µM. Moreover, the TGI with OVCAR-8 ovarian is 2.6 µM; in the assay with EKVX NSCLC, 2.96 µM; in the assay with HCC-2998 colon it was 2.81 µM; in the assay on OVCAR-3 ovarian it was 2.17 µM; in the assay on LOX IMVI melanoma it was 2.99 µM; with HOP-62 NSCLC, 3.38 µM. Also, the TGI in the assay with K-562 leukemia came out at 1.81 µM; with RPMI-8226 leukemia, 2.02 µM; in the assay on SK-MEL-5 melanoma it was 2.76 µM; in the assay with NCI-H226 lung, 2.4 µM.

As to `O=C1c2ccccc2C(=O)N1c1ccc(S(=O)(=O)Nc2ncccn2)cc1`, the GI50 in the assay on OVCAR-8 ovarian was more than 100 µM; in the assay with EKVX NSCLC it was more than 100 µM; with HCC-2998 colon, 22.7 µM; in the assay with OVCAR-3 ovarian, more than 100 µM; with LOX IMVI melanoma it was more than 100 µM; in the assay with HOP-62 NSCLC it was more than 100 µM. The GI50 with K-562 leukemia, in the assay with RPMI-8226 leukemia, in the assay on SK-MEL-5 melanoma and in the assay with NCI-H226 lung was more than 100 µM throughout. The TGI in the assay on OVCAR-8 ovarian, in the assay on EKVX NSCLC, in the assay with HCC-2998 colon, in the assay with OVCAR-3 ovarian, in the assay with LOX IMVI melanoma and in the assay with HOP-62 NSCLC was more than 100 µM throughout. The TGI in the assay with K-562 leukemia, in the assay with RPMI-8226 leukemia, with SK-MEL-5 melanoma and with NCI-H226 lung was more than 100 µM throughout.

For `CC(C)(C)c1ccc([I+]c2ccc(C(C)(C)C)cc2)cc1`, the GI50 is 1.44 µM with OVCAR-8 ovarian; 1.42 µM in the assay on EKVX NSCLC; 1.78 µM in the assay with HCC-2998 colon; 1.44 µM in the assay with OVCAR-3 ovarian; 1.31 µM in the assay with LOX IMVI melanoma; 1.83 µM in the assay on HOP-62 NSCLC. The GI50 in the assay on K-562 leukemia was 0.55 µM; with RPMI-8226 leukemia it was 0.389 µM; in the assay with SK-MEL-5 melanoma, 0.348 µM; in the assay on NCI-H226 lung, 1.29 µM. The TGI came out at 3.72 µM with OVCAR-8 ovarian; 5.24 µM in the assay with EKVX NSCLC; 9.09 µM in the assay on HCC-2998 colon; 6.87 µM in the assay on OVCAR-3 ovarian; 2.74 µM in the assay with LOX IMVI melanoma; 3.71 µM in the assay with HOP-62 NSCLC. Besides, the TGI in the assay on K-562 leukemia was 2.46 µM; with RPMI-8226 leukemia, 1.99 µM; in the assay on SK-MEL-5 melanoma, 1.19 µM; with NCI-H226 lung, 5.32 µM.
